Experimental data from publication PMC11798738, “Targeting ASK1 by CS17919 alleviates kidney‐ and liver‐related diseases in murine models” (Animal Models and Experimental Medicine, 2024).

How the values were obtained:
[1] = Metabolic stability in liver microsomes; type: in vitro ADME; settings: Human
[2] = Metabolic stability in liver microsomes; type: in vitro ADME; settings: Rat
[3] = molecular target: CYP 1A2 (Homo sapiens, UniProt P05177)
[4] = tested on: CCC‐HEL‐1; assay: MTS cytotoxicity assay, CCC-HEL-1; type: cell-based, human; settings: 72 h
Procedure: (§1) Human embryonic kidney cells (HEK‐293A), human hepatocellular carcinoma cells (HUH7), human embryonic liver diploid cells (CCC‐HEL‐1) and human embryonic lung cells (MRC‐5) were selected for the cytotoxicity study of both drugs, using the MTS assay protocol. Cells were cultured at 37°C with 5% CO2 using an appropriate medium. […] After 72 h of incubation, 30 μL of MTS solution was added to each well, and the cells were then incubated for 2–4 h in the dark. The absorbance value of each well at 490 nm was measured using an enzymatic plate reader and the IC50 for each drug and each cell line was calculated. Cell viability and cytoxicity experiments were repeated three times.

[5] = tested on: HEK‐293A; assay: MTS cytotoxicity assay, HEK-293A; type: cell-based, human; settings: 72 h
Procedure: Human embryonic kidney cells (HEK‐293A), human hepatocellular carcinoma cells (HUH7), human embryonic liver diploid cells (CCC‐HEL‐1) and human embryonic lung cells (MRC‐5) were selected for the cytotoxicity study of both drugs, using the MTS assay protocol. Cells were cultured at 37°C with 5% CO2 using an appropriate medium. For the assay, the cells were evenly distributed at 1E4 cells/well in 96‐well plates, and then CS17919 or GS‐4997 was added to the plates in a dose‐dependent manner (3‐fold dilution from 100 μmol/L). After 72 h of incubation, 30 μL of MTS solution was added to each well, and the cells were then incubated for 2–4 h in the dark. The absorbance value of each well at 490 nm was measured using an enzymatic plate reader and the IC50 for each drug and each cell line was calculated. Cell viability and cytoxicity experiments were repeated three times.

[6] = tested on: MRC‐5; assay: MTS cytotoxicity assay, MRC-5; type: cell-based, human; settings: 72 h
Procedure: as §1

CYP 1A2, sequence (P05177 whole entry): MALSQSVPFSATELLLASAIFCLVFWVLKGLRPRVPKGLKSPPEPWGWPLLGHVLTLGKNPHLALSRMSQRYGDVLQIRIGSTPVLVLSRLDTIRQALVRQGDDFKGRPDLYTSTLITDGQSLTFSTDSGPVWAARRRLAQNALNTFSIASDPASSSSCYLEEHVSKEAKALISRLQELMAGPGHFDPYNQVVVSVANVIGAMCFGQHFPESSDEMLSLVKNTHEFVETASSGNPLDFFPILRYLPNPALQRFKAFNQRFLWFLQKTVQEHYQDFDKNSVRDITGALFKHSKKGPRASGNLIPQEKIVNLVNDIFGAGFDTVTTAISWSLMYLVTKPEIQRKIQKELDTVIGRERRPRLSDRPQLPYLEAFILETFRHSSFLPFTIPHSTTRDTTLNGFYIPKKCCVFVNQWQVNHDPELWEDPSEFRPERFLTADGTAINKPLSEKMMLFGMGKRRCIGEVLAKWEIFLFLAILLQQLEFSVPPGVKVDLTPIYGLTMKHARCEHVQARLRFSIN

**Q.** For `Cc1cc(F)c(C(=O)Nc2cccc(-c3nncn3[C@H](C)C(F)(F)F)n2)cc1NC(=O)C1CC1` [CS17919], which “T1/2 in liver microsomes” value [1] is on record?
**A.** >145 min

**Q.** And the “T1/2 in liver microsomes” value [2]?
**A.** >145 min

**Q.** And the IC50 [3]?
**A.** > 10 µM

**Q.** And the “Cytotoxicity (cell viability)” value [4]?
**A.** barely affected cell viability

**Q.** And the “Cytotoxicity (cell viability)” value [5]?
**A.** barely affected cell viability

**Q.** What about the “Cytotoxicity (cell viability)” value [6] of the same molecule?
**A.** barely affected cell viability
